Assay results from patent publication US12077503B2, “Substituted cyclic amides and their use as herbicides” (FMC CORPORATION, priority 2015, dated 2024).

What was measured:
Format in all cases: in vivo
[1] = tested on: ducksalad (Heteranthera limosa); assay: Test B flooded paddy test; settings: Flood, 500 g ai/ha; 0 to 100 scale where 0 is no effect and 100 is complete control; 13 to 15 d
In short: (§1)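 Evaluation by eye, against controls, occurred 13–15 d post-treatment in a greenhouse, using a 0 (no effect) to 100 (complete control) scale. Application was into the paddy water, 3 cm deep over the soil, on 2-leaf plants.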

[2] = tested on: barnyardgrass (Echinochloa crus-galli); assay: Test B flooded paddy test; settings: Flood, 500 g ai/ha; 0 to 100 scale where 0 is no effect and 100 is complete control; 13 to 15 d
In short: as §1

[3] = tested on: sedge, umbrella (small-flower umbrella sedge, Cyperus difformis); assay: Test B flooded paddy test; settings: Flood, 500 g ai/ha; 0 to 100 scale where 0 is no effect and 100 is complete control; 13 to 15 d
In short: as §1

rice (Oryra sativa) = assay: Test B flooded paddy test; settings: Flood, 500 g ai/ha; 0 to 100 scale where 0 is no effect and 100 is complete control; 13 to 15 d
In short: as §1

[4] = tested on: ryegrass, Italian (Italian ryegrass, Lolium multiflorum); assay: Test A postemergence; settings: postemergence; for Ryegrass, Italian plant response rating: 125 g ai/ha, visual injury rating on 0 to 100 scale (0 no effect, 100 complete control), approx. 10 d; for Plant response rating, Ryegrass, Italian: 500 g ai/ha, 0 to 100 scale, 0 no effect, 100 complete control
In short: (§2)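 Preemergence directed soil spray on seeded pots, or postemergence application to plants 2–10 cm, one- to two-leaf. Solvent mixture non-phytotoxic, with surfactant. Scored ~10 d later, visually, 0–100 vs untreated.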

[5] = tested on: ragweed (common ragweed, Ambrosia elatior); assay: Test A postemergence; settings: postemergence; for Ragweed plant response rating: 125 g ai/ha, visual injury rating on 0 to 100 scale (0 no effect, 100 complete control), approx. 10 d; for Plant response rating, Ragweed: 500 g ai/ha, 0 to 100 scale, 0 no effect, 100 complete control
In short: as §2

[6] = tested on: pigweed (Amaranthus retroflexus); assay: Test A postemergence; settings: postemergence; for Pigweed plant response rating: 125 g ai/ha, visual injury rating on 0 to 100 scale (0 no effect, 100 complete control), approx. 10 d; for Plant response rating, Pigweed: 500 g ai/ha, 0 to 100 scale, 0 no effect, 100 complete control
In short: as §2

[7] = tested on: Galium (catchweed bedstraw, Galium aparine); assay: Test A postemergence; settings: postemergence; for Galium plant response rating: 125 g ai/ha, visual injury rating on 0 to 100 scale (0 no effect, 100 complete control), approx. 10 d; for Plant response rating, Galium: 500 g ai/ha, 0 to 100 scale, 0 no effect, 100 complete control
In short: as §2

[8] = tested on: wheat (Triticum aestivum); assay: Test A postemergence; settings: postemergence; for Wheat plant response rating: 125 g ai/ha, visual injury rating on 0 to 100 scale (0 no effect, 100 complete control), approx. 10 d; for Plant response rating, Wheat: 500 g ai/ha, 0 to 100 scale, 0 no effect, 100 complete control
In short: as §2

corn (Zea mays) = assay: Test A postemergence; settings: postemergence; for Corn plant response rating: 125 g ai/ha, visual injury rating on 0 to 100 scale (0 no effect, 100 complete control), approx. 10 d; for Plant response rating, Corn: 500 g ai/ha, 0 to 100 scale, 0 no effect, 100 complete control
In short: as §2

[9] = tested on: barnyardgrass (Echinochloa crus-galli); assay: Test A postemergence; settings: postemergence; for Barnyardgrass plant response rating: 125 g ai/ha, visual injury rating on 0 to 100 scale (0 no effect, 100 complete control), approx. 10 d; for Plant response rating, Barnyardgrass: 500 g ai/ha, 0 to 100 scale, 0 no effect, 100 complete control
In short: as §2

[10] = tested on: giant foxtail (Setaria faberii); assay: Test A postemergence; settings: postemergence; for Foxtail, Giant plant response rating: 125 g ai/ha, visual injury rating on 0 to 100 scale (0 no effect, 100 complete control), approx. 10 d; for Plant response rating, Foxtail, Giant: 500 g ai/ha, 0 to 100 scale, 0 no effect, 100 complete control
In short: as §2

[11] = tested on: blackgrass (Alopecurus myosuroides); assay: Test A postemergence; settings: postemergence; for Blackgrass plant response rating: 125 g ai/ha, visual injury rating on 0 to 100 scale (0 no effect, 100 complete control), approx. 10 d; for Plant response rating, Blackgrass: 500 g ai/ha, 0 to 100 scale, 0 no effect, 100 complete control
In short: as §2

Kochia (Kochia scoparia) [12] = assay: Test A postemergence; settings: postemergence; for Kochia plant response rating: 125 g ai/ha, visual injury rating on 0 to 100 scale (0 no effect, 100 complete control), approx. 10 d; for Plant response rating, Kochia: 500 g ai/ha, 0 to 100 scale, 0 no effect, 100 complete control
In short: as §2

[13] = tested on: ryegrass, Italian (Italian ryegrass, Lolium multiflorum); assay: Test A preemergence; settings: for Plant response rating, Ryegrass, Italian: 125 g ai/ha, preemergence, 0 to 100 scale (0 no effect, 100 complete control); for Ryegrass, Italian plant response rating (0 to 100 scale, 0 is no effect, 100 is complete control): Preemergence, 500 g ai/ha, visual injury approx. 10 d
In short: as §2

[14] = tested on: ragweed (common ragweed, Ambrosia elatior); assay: Test A preemergence; settings: for Plant response rating, Ragweed: 125 g ai/ha, preemergence, 0 to 100 scale (0 no effect, 100 complete control); for Ragweed plant response rating (0 to 100 scale, 0 is no effect, 100 is complete control): Preemergence, 500 g ai/ha, visual injury approx. 10 d
In short: as §2

[15] = tested on: pigweed (Amaranthus retroflexus); assay: Test A preemergence; settings: for Plant response rating, Pigweed: 125 g ai/ha, preemergence, 0 to 100 scale (0 no effect, 100 complete control); for Pigweed plant response rating (0 to 100 scale, 0 is no effect, 100 is complete control): Preemergence, 500 g ai/ha, visual injury approx. 10 d
[16] = tested on: barnyardgrass (Echinochloa crus-galli); assay: Test A preemergence; settings: for Plant response rating, Barnyardgrass: 125 g ai/ha, preemergence, 0 to 100 scale (0 no effect, 100 complete control); for Barnyardgrass plant response rating (0 to 100 scale, 0 is no effect, 100 is complete control): Preemergence, 500 g ai/ha, visual injury approx. 10 d
In short: as §2

[17] = tested on: giant foxtail (Setaria faberii); assay: Test A preemergence; settings: for Plant response rating, Foxtail, Giant: 125 g ai/ha, preemergence, 0 to 100 scale (0 no effect, 100 complete control); for Foxtail, Giant plant response rating (0 to 100 scale, 0 is no effect, 100 is complete control): Preemergence, 500 g ai/ha, visual injury approx. 10 d
In short: as §2

Kochia (Kochia scoparia) [18] = assay: Test A preemergence; settings: for Plant response rating, Kochia: 125 g ai/ha, preemergence, 0 to 100 scale (0 no effect, 100 complete control); for Kochia plant response rating (0 to 100 scale, 0 is no effect, 100 is complete control): Preemergence, 500 g ai/ha, visual injury approx. 10 d
In short: as §2

Row | SMILES | Plant response rating, Ducksalad [1] | Plant response rating, Barnyardgrass [2] | Plant response rating, Sedge, Umbrella [3] | Plant response rating, Rice (rice (Oryra sativa)) | Ryegrass, Italian plant response rating [4] | Plant response rating, Ryegrass, Italian [4] | Ragweed plant response rating [5] | Plant response rating, Ragweed [5] | Pigweed plant response rating [6] | Plant response rating, Pigweed [6] | Galium plant response rating [7] | Plant response rating, Galium [7] | Wheat plant response rating [8] | Plant response rating, Wheat [8] | Corn plant response rating (corn (Zea mays)) | Plant response rating, Corn (corn (Zea mays)) | Barnyardgrass plant response rating [9] | Plant response rating, Barnyardgrass [9] | Foxtail, Giant plant response rating [10] | Plant response rating, Foxtail, Giant [10] | further results
1 | COc1cccc(NC(=O)C2C(=O)NCC2c2ccc(F)c(F)c2)c1F (stereo not drawn) [Compound 416] | 50 | 0 | 0 | 15 | 0 | 0 | 0 | 0 | 0 | 0 | 0 | 0 | 0 | 0 | 0 | 0 | 0 | 0 | 0 | 0 | Blackgrass plant response rating [11]: 0; Plant response rating, Blackgrass [11]: 0; Kochia plant response rating (Kochia (Kochia scoparia) [12]): 0; Plant response rating, Kochia (Kochia (Kochia scoparia) [12]): 0; Plant response rating, Ryegrass, Italian [13]: 0; Ryegrass, Italian plant response rating (0 to 100 scale, 0 is no effect, 100 is complete control) [13]: 0; Plant response rating, Ragweed [14]: 0; Ragweed plant response rating (0 to 100 scale, 0 is no effect, 100 is complete control) [14]: 0; Plant response rating, Pigweed [15]: 0; Pigweed plant response rating (0 to 100 scale, 0 is no effect, 100 is complete control) [15]: 0; Plant response rating, Barnyardgrass [16]: 0; Barnyardgrass plant response rating (0 to 100 scale, 0 is no effect, 100 is complete control) [16]: 0; Plant response rating, Foxtail, Giant [17]: 0; Foxtail, Giant plant response rating (0 to 100 scale, 0 is no effect, 100 is complete control) [17]: 50; Plant response rating, Kochia (Kochia (Kochia scoparia) [18]): 0; Kochia plant response rating (0 to 100 scale, 0 is no effect, 100 is complete control) (Kochia (Kochia scoparia) [18]): 0
2 | O=C1NCC(c2cccc(OC(F)F)c2)C1C(=O)Nc1cccc(OC(F)F)c1 (stereo not drawn) [Compound 422] | 50 | 0 | 0 | 0 | 0 | 0 | 0 | 0 | 40 | 60 | 30 | 70 | 0 | 0 | 0 | 0 | 50 | 60 | 50 | 60 | Blackgrass plant response rating [11]: 30; Plant response rating, Blackgrass [11]: 50; Kochia plant response rating (Kochia (Kochia scoparia) [12]): 50; Plant response rating, Kochia (Kochia (Kochia scoparia) [12]): 60; Plant response rating, Ryegrass, Italian [13]: 0; Ryegrass, Italian plant response rating (0 to 100 scale, 0 is no effect, 100 is complete control) [13]: 0; Plant response rating, Ragweed [14]: 0; Ragweed plant response rating (0 to 100 scale, 0 is no effect, 100 is complete control) [14]: 0; Plant response rating, Pigweed [15]: 20; Pigweed plant response rating (0 to 100 scale, 0 is no effect, 100 is complete control) [15]: 30; Plant response rating, Barnyardgrass [16]: 40; Barnyardgrass plant response rating (0 to 100 scale, 0 is no effect, 100 is complete control) [16]: 70; Plant response rating, Foxtail, Giant [17]: 60; Foxtail, Giant plant response rating (0 to 100 scale, 0 is no effect, 100 is complete control) [17]: 70; Plant response rating, Kochia (Kochia (Kochia scoparia) [18]): 0; Kochia plant response rating (0 to 100 scale, 0 is no effect, 100 is complete control) (Kochia (Kochia scoparia) [18]): 0
3 | COc1cccc(NC(=O)C2C(=O)NCC2c2cccc(OC(F)F)c2)c1F (stereo not drawn) [Compound 426] | 40 | 0 | 0 | 0 | 0 | 0 | 0 | 0 | 0 | 0 | 0 | 0 | 0 | 0 | 0 | 0 | 30 | 70 | 20 | 60 | Blackgrass plant response rating [11]: 0; Plant response rating, Blackgrass [11]: 0; Kochia plant response rating (Kochia (Kochia scoparia) [12]): 0; Plant response rating, Kochia (Kochia (Kochia scoparia) [12]): 0; Plant response rating, Ryegrass, Italian [13]: 0; Ryegrass, Italian plant response rating (0 to 100 scale, 0 is no effect, 100 is complete control) [13]: 0; Plant response rating, Ragweed [14]: 0; Ragweed plant response rating (0 to 100 scale, 0 is no effect, 100 is complete control) [14]: 0; Plant response rating, Pigweed [15]: 0; Pigweed plant response rating (0 to 100 scale, 0 is no effect, 100 is complete control) [15]: 30; Plant response rating, Barnyardgrass [16]: 50; Barnyardgrass plant response rating (0 to 100 scale, 0 is no effect, 100 is complete control) [16]: 80; Plant response rating, Foxtail, Giant [17]: 80; Foxtail, Giant plant response rating (0 to 100 scale, 0 is no effect, 100 is complete control) [17]: 90; Plant response rating, Kochia (Kochia (Kochia scoparia) [18]): 0; Kochia plant response rating (0 to 100 scale, 0 is no effect, 100 is complete control) (Kochia (Kochia scoparia) [18]): 0
